Experimental data: patent publication US20250281518A1, “METHODS AND AGENTS FOR PREVENTING SKELETAL AGING, OSTEOPOROSIS AND OBESITY” (The Regents of the University of California, priority 2022, published 2025)
“Also recorded” adds a separate entry of the source.

Tests used:
aged C57BL/6J male mice = assay: Bone and adipose metabolism in aged mice, dosing in drinking water from 18 months of age for six months; assay type: in vivo, mouse; settings: for body weight: after six months treatment
Description: (§1) For the mice on high fat diets, the starting animal weights were about 25 grams.
(§2) Mice weighed 40 g on average at the start of the study. Body weight, food and water consumption were monitored on a weekly basis. Nuclear magnetic resonance scanner was used to assess lean mass and fat mass composition. Liver and adipose tissues were harvested for histology and histomorphometric analyses. Femur, tibia and mandible were subjected to μCT scanning and reconstruction. […] One-way ANOVA was performed to quantify differences among all the groups.

[1] = Stability of water solutions; assay type: physicochemical; settings: water solution
OVX C57BL/6J female mice = assay: Ovariectomy (OVX)-induced osteoporosis and obesity in mice, dosing in drinking water over two months; assay type: in vivo, mouse
Text: Aging-related bone loss and osteoporosis frequently occur in women after menopause. To mimic the pathogenesis of osteoporotic bone loss, we performed ovariectomy (OVX) on female mice to induce estrogen deficiency. […] Mice weight on average 20 g at the start of the experiment. […] Dosing was over two months.
as §1
We monitored mouse body weight, food and water consumption on a weekly basis for two months. Nuclear magnetic resonance scanner was used to assess lean mass and fat mass composition. Serum chemistries were analyzed in UCLA DLAM facility. Liver and adipose tissues were harvested for histology and histomorphometric analyses. Femur, tibia and mandible were subjected to micro-CT scanning and reconstruction. […] One-way ANOVA was performed to quantify differences among all the groups.

Solubility in water = assay type: physicochemical
HFD-fed mice = assay: High fat diet (HFD)-induced obesity and bone loss in mice, dosing in drinking water for three months; assay type: in vivo, mouse
Text: as §1
as §2, with “were given a regular diet or high fat diet (HFD) for three months beginning” for “weighed 40 g on average”, “age” for “the start”, “8 weeks. […]” for “the study.”, “basis for three months.” for “basis.”, “micro-CT” for “μCT”

[2] = 100 mg/kg/day alone, compared with 500 mg/kg/day and combination groups

For `NC(=O)c1ccc[n+]([C@@H]2O[C@H](COP(=O)([O-])O)[C@@H](O)[C@H]2O)c1` [NMN, 3-carbamoyl-1-[5-O-(hydroxyphosphinato)-β-D-ribofuranosyl]pyridinium], the body weight (aged C57BL/6J male mice; 100 mg/kg/day alone, compared with control) was “increased at a similar rate”, the “fat mass and lean mass (nuclear magnetic resonance)” value (aged C57BL/6J male mice; [2]) was “significantly higher fat mass and lower lean mass” and the “weight and size of liver” value (aged C57BL/6J male mice; [2]) was “significantly higher”. For the same compound, the “weight of pgWAT” value (aged C57BL/6J male mice; [2]) was “significantly higher”, the body weight (aged C57BL/6J male mice; 500 mg/kg/day alone) was “decreased significantly” and the “weight and size of liver” value (aged C57BL/6J male mice; 500 mg/kg/day alone, comparison is worded from the side of control and 100 mg/kg/day groups) was “significantly higher in control, 100 mg/kg/day α-KG, and 100 mg/kg/day NMN groups compared with”. For the same compound, the “stability of the water solutions” value [1] was “highly stable”, the “weight and size of liver” value (OVX C57BL/6J female mice; 100 mg/kg/day alone, OVX mice) was “did not significantly affect” and the “OVX-induced body weight gain” value (OVX C57BL/6J female mice; 100 mg/kg/day alone, drinking water, two months) was “ineffective; also recorded: did not significantly inhibit”. For the same compound, the “OVX-induced mouse body weight gain” value (OVX C57BL/6J female mice; 500 mg/kg/day alone, drinking water, two months) was “significantly inhibited”, the solubility in water (Solubility in water) was “dissolve well in water” and the “fat mass (nuclear magnetic resonance)” value (HFD-fed mice; 100 mg/kg/day alone, HFD) was “could not affect”. For the same compound, the “weight gains induced by HFD” value (HFD-fed mice; low concentration (100 mg/kg/day) alone, three months) was “did not significantly reduce” and the “pgWAT weight gain induced by HFD” value (HFD-fed mice; low concentration alone) was “did not significantly inhibit”.

In the case of alpha-ketoglutarate [α-KG], the “stability of the water solutions” value [1] was “highly stable”.
